The text below walks through data of patent US12070509B2, “Nucleic acids and methods of treatment for cystic fibrosis” (Arcturus Therapeutics, Inc., priority 2020, dated 2024).

The target in the experiment is T1, CFTR channels (Homo sapiens, UniProt P13569).
T1 construct: 1835; Cap1; TEV; Yes; XBG; 53; expressed in transfected cells; host or cells: FRT (Fischer rat thyroid) cells in air-liquid interface culture, transfected with unformulated hCFTR mRNA
The experiment in a line: Transepithelial conductance (Gt) in Air-Liquid Interface culture of transfected FRT cells. The class given is cell-based. The settings on record: FRT cells transfected with constructs 2099.1 and 1835.1 (FIG. 12); sequential Forskolin, VX770, Inh-172. The protocol:
Further studies were conducted to assess the activity of hCFTR proteins expressed by selected mRNA constructs and whether these can properly open and close to allow proper ion transport. In these studies, an Air-Liquid Interface (ALI) cell culture model of FRT cells was used to transfect an unformulated subset of codon-optimized hCFTR mRNAs at different doses ranging from 0.5 μg-2 μg of mRNA (the 2 μg dose is not shown) into the FRT cells. ALI is a method of cell culture by which polarized cells are generated with their basal surfaces in contact with media, and the top of the cellular layer is exposed to the air. This model helps to mimic the cellular structure of in vivo airways.
At 24 hours post-transfection, transepithelial conductance (Gt) of the cells over time was measured as an indicator of CFTR activity. Initially, Gt was measured with the transfected or control cells unperturbed. Then, a sequential process of CFTR activation (channel opening), enhancement (gating promotion) and closing of the CFTR channels was performed. The hCFTR constructs used in this study were 1835.1 (SEQ ID NO: 53), 2093.1 (SEQ ID NO: 66), 2095.1 (SEQ ID NO: 68), 2096.1 (SEQ ID NO: 69), and 2099.1 (SEQ ID NO: 72). In addition, controls were performed using a reference sequence of construct 764.1 (SEQ ID NO: 47) and untransfected cells. […]

T1 sequence (P13569 whole entry): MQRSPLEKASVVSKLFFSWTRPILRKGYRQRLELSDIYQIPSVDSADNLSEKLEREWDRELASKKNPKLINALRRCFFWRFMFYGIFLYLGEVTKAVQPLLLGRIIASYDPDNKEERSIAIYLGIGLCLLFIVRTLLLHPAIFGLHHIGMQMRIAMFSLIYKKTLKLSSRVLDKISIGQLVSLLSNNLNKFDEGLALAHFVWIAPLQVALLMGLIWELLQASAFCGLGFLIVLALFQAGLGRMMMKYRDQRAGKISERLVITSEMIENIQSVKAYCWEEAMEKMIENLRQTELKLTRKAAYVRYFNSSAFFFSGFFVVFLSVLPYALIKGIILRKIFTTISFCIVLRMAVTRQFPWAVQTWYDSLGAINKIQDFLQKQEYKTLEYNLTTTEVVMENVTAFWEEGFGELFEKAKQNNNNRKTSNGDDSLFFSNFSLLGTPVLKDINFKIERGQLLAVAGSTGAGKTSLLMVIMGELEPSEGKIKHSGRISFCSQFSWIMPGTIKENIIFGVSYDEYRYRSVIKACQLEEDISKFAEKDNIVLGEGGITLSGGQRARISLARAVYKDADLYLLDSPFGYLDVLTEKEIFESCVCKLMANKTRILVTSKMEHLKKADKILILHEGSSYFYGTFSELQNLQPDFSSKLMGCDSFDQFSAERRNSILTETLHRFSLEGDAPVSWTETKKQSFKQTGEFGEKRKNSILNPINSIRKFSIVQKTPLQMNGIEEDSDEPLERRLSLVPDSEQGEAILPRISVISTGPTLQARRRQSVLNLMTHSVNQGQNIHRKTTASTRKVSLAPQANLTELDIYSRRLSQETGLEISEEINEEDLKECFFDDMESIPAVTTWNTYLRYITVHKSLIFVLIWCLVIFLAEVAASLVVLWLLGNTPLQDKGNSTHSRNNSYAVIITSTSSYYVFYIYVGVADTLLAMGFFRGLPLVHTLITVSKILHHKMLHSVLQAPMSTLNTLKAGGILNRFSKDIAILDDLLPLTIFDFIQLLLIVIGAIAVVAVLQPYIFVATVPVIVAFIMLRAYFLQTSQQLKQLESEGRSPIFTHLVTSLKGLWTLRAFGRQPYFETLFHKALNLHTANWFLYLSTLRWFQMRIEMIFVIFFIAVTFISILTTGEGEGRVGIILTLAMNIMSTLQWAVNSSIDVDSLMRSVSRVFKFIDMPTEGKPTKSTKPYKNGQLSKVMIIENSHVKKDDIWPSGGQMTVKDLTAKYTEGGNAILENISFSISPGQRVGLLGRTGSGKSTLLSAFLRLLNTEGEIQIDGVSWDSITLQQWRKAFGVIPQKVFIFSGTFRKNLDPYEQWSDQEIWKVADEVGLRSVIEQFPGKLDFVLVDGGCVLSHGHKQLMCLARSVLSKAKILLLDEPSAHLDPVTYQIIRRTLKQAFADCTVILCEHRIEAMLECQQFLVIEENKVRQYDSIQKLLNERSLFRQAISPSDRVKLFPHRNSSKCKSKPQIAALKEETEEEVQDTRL

In the case of `O=C(O)c1ccc(C=C2SC(=S)N(c3cccc(C(F)(F)F)c3)C2=O)cc1` [Inh-172, reference compound], the “Change in Gt on introduction of CFTR modulator” value is recorded as “decline in Gt”.
Consider `CC(C)(C)c1cc(C(C)(C)C)c(NC(=O)c2c[nH]c3ccccc3c2=O)cc1O` [VX770, reference compound], for which the “Change in Gt on introduction of CFTR modulator” value is reported as “second increase in Gt”.
